The target of assay [1] is human recombinant PLK4 (Homo sapiens (Human), UniProt O00444). As to the kind of experiment: PLK4 Biochemical Assay (ADP-Glo). Conditions: 0.5 nM PLK4, 8.0 µM ATP, 4.7 µM MBP, 6 hours at RT. A digest of the protocol:
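Recombinant human PLK4 (added at 1.0 nM) was preincubated 15 min at RT with compound in 50 mM HEPES pH 7.5, 10 mM MgCl2, 1 mM EGTA, 1 mM DTT, 0.01% Brij-35, 0.01% BSA. ADP formed was detected by ADP-Glo luminescence (40 min ATP depletion, 30 min detection). IC50 came from a four-parameter fit.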
(In ADP-Glo the light output rises with the ADP produced.)

The test system of assay [2] is CHP-134 cells. Kind of assay: CHP134 CellTiter-Glo (CTG) Assay. It is filed as cell-based. Conditions: Homo sapiens, 5 days, viable cells by CellTiter-Glo. The method, then: Cells were seeded (200 cells/well) in 384-well plates for 16 hours. On day two, nine serial 1:3 compound dilutions were made in DMSO in a 96-well plate. The compounds were then further diluted into growth media using a BRAVO robot (Agilent, Santa Clara, CA). The diluted compounds were then added to quadruplicate wells in the 384-well cell plate and incubated at 37° C. and 5% CO2. After 5 days, relative numbers of viable cells were measured by luminescence using CellTiter-Glo® (Promega) according to the manufacturer’s instructions and read on a SPARK Multimode Microplate Reader (Tecan, Mannedorf Switzerland). The IC50 calculations for the values reported in Table 2 were carried out using Prism 6.0 software (GraphPad, San Diego).
(In general: Cellular ATP, detected with luciferase, serves as a proxy for viable cell number.)

Assay [3] addresses human recombinant Aurora A (Homo sapiens (Human), UniProt O14965). Kind of assay: Aurora A Kinase Biochemical Assay (ADP-Glo). The following applies: ratio of Aurora A IC50 to PLK4 IC50 (selectivity).
Assay [4] concerns the target human recombinant Aurora B (Homo sapiens (Human), UniProt Q96GD4). As to the kind of experiment: Aurora B Kinase Biochemical Assay (ADP-Glo). Conditions: ratio of Aurora B IC50 to PLK4 IC50 (selectivity). A digest of the protocol:
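Recombinant human Aurora B (20 nM in pH 7.5 HEPES buffer with MgCl2, EGTA, DTT, Brij-35, BSA) preincubated with compound 15 min at RT. ADP formed quantified by ADP-Glo luminescence after ATP depletion (40 min) and detection (30 min). IC50 from four-parameter non-linear regression.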

Each structure is given as a SMILES string.

Chain of human recombinant Aurora B (Q96GD4 whole entry): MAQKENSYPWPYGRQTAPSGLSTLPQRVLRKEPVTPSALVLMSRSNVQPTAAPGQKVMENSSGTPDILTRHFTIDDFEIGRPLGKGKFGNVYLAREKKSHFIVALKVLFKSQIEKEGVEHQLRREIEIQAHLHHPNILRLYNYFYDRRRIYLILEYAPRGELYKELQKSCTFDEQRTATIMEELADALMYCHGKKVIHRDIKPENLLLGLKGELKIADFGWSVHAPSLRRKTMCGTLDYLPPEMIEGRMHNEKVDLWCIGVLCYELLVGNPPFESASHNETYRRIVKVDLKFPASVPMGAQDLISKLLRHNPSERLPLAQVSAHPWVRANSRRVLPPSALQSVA
Chain of human recombinant Aurora A (O14965 whole entry): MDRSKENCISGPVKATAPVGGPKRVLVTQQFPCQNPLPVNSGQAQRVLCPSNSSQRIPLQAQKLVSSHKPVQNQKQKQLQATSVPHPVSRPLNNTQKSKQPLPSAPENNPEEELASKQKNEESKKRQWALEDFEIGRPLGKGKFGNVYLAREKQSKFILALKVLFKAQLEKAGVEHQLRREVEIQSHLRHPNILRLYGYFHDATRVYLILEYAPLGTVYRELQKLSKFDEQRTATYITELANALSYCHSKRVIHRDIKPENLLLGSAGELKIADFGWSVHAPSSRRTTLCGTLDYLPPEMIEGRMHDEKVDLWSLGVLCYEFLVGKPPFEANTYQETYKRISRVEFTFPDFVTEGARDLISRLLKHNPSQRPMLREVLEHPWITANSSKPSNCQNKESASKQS
Chain of human recombinant PLK4 (O00444 whole entry): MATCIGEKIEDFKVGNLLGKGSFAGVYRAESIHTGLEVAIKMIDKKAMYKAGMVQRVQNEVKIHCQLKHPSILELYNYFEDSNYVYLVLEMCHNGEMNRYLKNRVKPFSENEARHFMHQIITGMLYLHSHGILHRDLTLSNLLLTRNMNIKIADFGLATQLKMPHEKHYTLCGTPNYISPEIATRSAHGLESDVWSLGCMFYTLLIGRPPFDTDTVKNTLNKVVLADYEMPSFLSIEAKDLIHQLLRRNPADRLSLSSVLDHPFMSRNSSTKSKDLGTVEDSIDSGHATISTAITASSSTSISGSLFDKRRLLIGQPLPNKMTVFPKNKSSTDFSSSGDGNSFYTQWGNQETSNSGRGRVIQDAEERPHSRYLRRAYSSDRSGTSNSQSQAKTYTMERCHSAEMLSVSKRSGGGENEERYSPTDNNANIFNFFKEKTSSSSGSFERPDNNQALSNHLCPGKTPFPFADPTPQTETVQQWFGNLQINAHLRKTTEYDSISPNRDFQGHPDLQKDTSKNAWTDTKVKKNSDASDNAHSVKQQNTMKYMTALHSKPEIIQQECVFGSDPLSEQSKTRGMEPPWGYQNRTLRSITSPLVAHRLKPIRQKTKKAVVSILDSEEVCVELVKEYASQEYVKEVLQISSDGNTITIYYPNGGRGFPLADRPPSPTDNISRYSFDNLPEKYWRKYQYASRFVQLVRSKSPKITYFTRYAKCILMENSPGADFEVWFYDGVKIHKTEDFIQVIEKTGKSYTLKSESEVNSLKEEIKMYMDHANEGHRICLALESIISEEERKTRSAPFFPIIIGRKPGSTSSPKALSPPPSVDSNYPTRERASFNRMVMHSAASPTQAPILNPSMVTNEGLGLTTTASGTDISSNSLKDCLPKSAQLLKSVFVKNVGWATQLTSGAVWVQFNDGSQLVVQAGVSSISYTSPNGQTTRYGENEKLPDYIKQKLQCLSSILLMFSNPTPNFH

A word on the IC50: it is the point on the concentration scale where inhibition reaches its midpoint. For the compound `COc1ccc2c(c1)[C@]1(C[C@H]1c1ccc3c(Nc4ncnc(N5CCN(C)CC5)c4Cl)n[nH]c3c1)C(=O)N2` [Example 20, (1R,2S)-2-(3-{[5-chloro-6-(4-methylpiperazin-1-yl)pyrimidin-4-yl]amino}-1H-indazol-6-yl)-5′-methoxyspiro[cyclopropane-1,3′-indol]-2′(1′H)-one], the IC50 in assay [1] came to 2.25 nM; in assay [2] (CHP-134, 120 h), 263 nM. Also, the “[Aurora A IC50 (nM)]/[PLK4 IC50 (nM)]” value in assay [3] is recorded as 4489.796. In assay [4], the “[Aurora B IC50 (nM)]/[PLK4 IC50 (nM)]” value was 306.8323.
Taken in the same sequence, the figures for `COc1ccc2c(c1)[C@]1(C[C@H]1c1ccc3c(Nc4nc(OC)ncc4Cl)n[nH]c3c1)C(=O)N2` [Example 23, (1R,2S)-2-{3-[(5-chloro-2-methoxypyrimidin-4-yl)amino]-1H-indazol-6-yl}-5′-methoxyspiro[cyclopropano-1,3′-indol]-2′(1′H)-one] were 5.05 nM, 45.9 nM, 215.5309 and 170.7409.
Taken in the same sequence, the figures for `COc1ccc2c(c1)[C@]1(C[C@H]1c1ccc3c(Nc4nc(C)nc(N5CCOCC5)c4OC)n[nH]c3c1)C(=O)N2` [Example 41, (1R,2S)-5′-methoxy-2-(3-{[5-methoxy-2-methyl-6-(morpholin-4-yl)pyrimidin-4-yl]amino}-1H-indazol-6-yl)spiro[cyclopropane-1,3′-indol]-2′(1′H)-one] were 2.71 nM, 844 nM, 2257.47 and 471.4128.
With `COc1ccc2c(c1)[C@]1(C[C@H]1c1ccc3c(Nc4ncnc(N5CC(O)C5)c4Cl)n[nH]c3c1)C(=O)N2` [Example 46, (1R,2S)-2-(3-{[5-chloro-6-(3-hydroxyazetidin-1-yl)pyrimidin4-yl]amino}-1H-indazol-6-yl)-5′-methoxyspiro[cyclopropane-1,3′-indol]-2′(1′H)-one], the concentration for half-maximal inhibition (IC50) in assay [1] came out at 2.52 nM; in assay [2] (CHP-134, 120 h), 1430 nM. For the same compound, the “[Aurora A IC50 (nM)]/[PLK4 IC50 (nM)]” value in assay [3] amounted to 2542.642. Moreover, in assay [4], the “[Aurora B IC50 (nM)]/[PLK4 IC50 (nM)]” value is 135.8985.
Taken in the same sequence, the figures for `COc1ccc2c(c1)[C@]1(C[C@H]1c1ccc3c(Nc4ncnc(N5CC(OC)C5)c4Cl)n[nH]c3c1)C(=O)N2` [Example 47, (1R,2S)-2-(3-{[5-chloro-6-(3-methoxyazetidin-1-yl)pyrimidin-4-yl]amino}-1H-indazol-6-yl)-5′-methoxyspiro[cyclopropane-1,3′-indol]-2′(1′H)-one] were 1.3 nM, 610 nM, 1879.416 and 104.3011.
Taken in the same sequence, the figures for `COc1ccc2c(c1)[C@]1(C[C@H]1c1ccc3c(Nc4nc(Cl)nc(N5CCOCC5)c4OC)n[nH]c3c1)C(=O)N2` [Example 48, (1R,2S)-2-(3-{[2-chloro-5-methoxy-6-(morpholin-4-yl)pyrimidin-4-yl]amino}-1H-indazol-6-yl)-5′-metboiyspiro[cyclopropane-1,3′-indol]-2′(1′H)-one] were 3.28 nM, 742 nM, 1948.123 and 292.3406.
As for `COc1ccc2c(c1)[C@]1(C[C@H]1c1ccc3c(Nc4nc(C5CC5)nc(N5CCOCC5)c4OC)n[nH]c3c1)C(=O)N2` [Example 51, (1R,2S)-2-(3-1[2-cyclopropyl-5-methoxy-6-(morpholin-4-yl)pyrimidin-4-yl]aminol-1H-indezol-6-yl)-5′-methoxyapiro[cyclopropane-1,3′-indol]-2′(1′H)-one], the IC50 in assay [1] came out at 1.23 nM; in assay [2] (CHP-134, 120 h), 143 nM. Also, in assay [3], the “[Aurora A IC50 (nM)]/[PLK4 IC50 (nM)]” value is given as 3031.656. Further, in assay [4], the “[Aurora B IC50 (nM)]/[PLK4 IC50 (nM)]” value was 1241.883.
Taken in the same sequence, the figures for `COc1ccc2c(c1)[C@]1(C[C@H]1c1ccc3c(Nc4ncnc(N5C[C@@H](C)O[C@@H](C)C5)c4OC)n[nH]c3c1)C(=O)N2` [Example 52, (lR,2S)-2-[3-({6-[(2R,6S)-2,6-dimethylmorpholin-4-yl]-5-methoxypyrimidin-4-yl}amino)-1H-indazol-6-yl]-5′-methoxyspiro[cydopropane-1,3′-indol]-2′(1′H)-one] were 7.01 nM, 2260 nM, 2009.699 and 55.0706.
In the case of `COc1ccc2c(c1)[C@]1(C[C@H]1c1ccc3c(Nc4ncnc(N5CCS(=O)(=O)CC5)c4OC)n[nH]c3c1)C(=O)N2` [Example 54, (1R,2S)-2-(3-((6-(1,1-dioxidothiomorpholino)-5-methoxypyrimidin-4-yl)amino)-1H-indazol-6-yl)-5′-methoxyspiro[cydopropane-1,3′-indolin]-2′-one], the half-inhibitory concentration (IC50) turned out to be 33.2 nM in assay [1] and 10000 nM in assay [2] (CHP-134, 120 h). In assay [3], the “[Aurora A IC50 (nM)]/[PLK4 IC50 (nM)]” value amounted to 1504.212. Further, in assay [4], the “[Aurora B IC50 (nM)]/[PLK4 IC50 (nM)]” value turned out to be 117.2684.
Taken in the same sequence, the figures for `COc1ccc2c(c1)[C@]1(C[C@H]1c1ccc3c(Nc4nc(CCO)cnc4OC)n[nH]c3c1)C(=O)N2` [Example 56, (1R,2S)-2-(3-{[6-(2-hydroxyethyl)-3-methoxypyrazin-2-yl]amino}-1H-indazol-6-yl)-5′-methoxyspiro[cyclopropane-1,3′-indol]-2′(1′H)-one] were 3.84 nM, 2680 nM, 1047.694 and 423.7686.
Taken in the same sequence, the figures for `COc1ccc2c(c1)[C@]1(C[C@H]1c1ccc3c(Nc4nc(C)nc(N5CCS(=O)(=O)CC5)c4OC)n[nH]c3c1)C(=O)N2` [Example 57, 4-[5-methoxy-6-({6-[(1R,2S)-5′-methoxy-2′-oxo-1′,2′-dihydrospiro[cyclopropane-1,3′-indol]-2-yl]-1H-indazol-3-yl}amino)-2-methylpyrimidin-4-yl]-1λ6-thiomorpholine-1,1-dione] were 5.08 nM, 3960 nM, 3527.559 and 831.2992.
Taken in the same sequence, the figures for `COc1ccc2c(c1)[C@]1(C[C@H]1c1ccc3c(Nc4nc(C)nc(N5CCS(=O)(=O)CC5)c4Cl)n[nH]c3c1)C(=O)N2` [Example 58, 4-[5-chloro-6-({6-[(1R,2S)-5′-methoxy-2′-oxo-1,2′-dihydrospiro[cyclopropane-1,3′-indol]-2-yl]-1H-indazol-3-yl}amino)-2-methylpyrimidin-4-yl]-1λ6-thiomorpholine-1,1-dione] were 2.32 nM, 157 nM, 1393.782 and 140.6736.
For `COc1ccc2c(c1)[C@]1(C[C@H]1c1ccc3c(Nc4nc(C#N)nc(N5CCOCC5)c4OC)n[nH]c3c1)C(=O)N2` [Example 61, 5-methoxy-4-({6-[(1R,2S)-5′-methoxy-2′-oxo-1’,2′-dihydrospiro[cyclopropane-1,3′-indol]-2-yl]-1H-indazol-3-yl}amino)-6-(morpholin-4-yl)pyrimidme-2-carbonitrile], the IC50 in assay [1] turned out to be 9.74 nM; in assay [2] (120 h), 2380 nM. For the same compound, the “[Aurora A IC50 (nM)]/[PLK4 IC50 (nM)]” value in assay [3] worked out at 588.8148. For the same compound, the “[Aurora B IC50 (nM)]/[PLK4 IC50 (nM)]” value in assay [4] was found to be 955.0539.
With `COc1ccc2c(c1)[C@]1(C[C@H]1c1ccc3c(Nc4nc(C#N)nc(N5CCS(=O)(=O)CC5)c4OC)n[nH]c3c1)C(=O)N2` [Example 62, 4-(l,l-dioxidothiomorpholino)-5-methoxy-6-((6-((lR,2S)-5′-methoxy-2′-oxospiro[cyclopropane-1,3′-indolin]-2-yl)-1H-indazol-3-yl)amino)pyrimidine-2-carbonitrile], the concentration for half-maximal inhibition (IC50) in assay [1] worked out at 16.9 nM; in assay [2] (CHP-134, 120 h) it was 10000 nM. In addition, the “[Aurora A IC50 (nM)]/[PLK4 IC50 (nM)]” value in assay [3] stood at 540.9225. The “[Aurora B IC50 (nM)]/[PLK4 IC50 (nM)]” value in assay [4] is listed as 946.7771.
Taken in the same sequence, the figures for `COc1ccc2c(c1)[C@]1(C[C@H]1c1ccc3c(Nc4nc(C)nc(N5C[C@@H](C)O[C@@H](C)C5)c4OC)n[nH]c3c1)C(=O)N2` [Example 67, (1R,2S)-2-[3-({6-[(2R,6S)-2,6-dimethylmorpholin-4-yl]-5-methoxy-2-methylpyrimidin-4-yl}amino)-1H-indazol-6-yl]-5′-methoxyspiro[cyclopropane-1,3′-indol]-2′(1′H)-one] were 1.34 nM, 4390 nM, 4976.155 and 499.9255.

The record behind these values is patent US20230365537A1, “POLO LIKE KINASE 4 INHIBITORS” (ORIC Pharmaceuticals, Inc., priority 2021, published 2023).
